Test [1] deals with IL-2 stimulated STAT5 phosphorylation in Tall-1 human T cell line. Briefly: Inhibition of IL-2 stimulated pSTAT5 in Tall-1 T cells. It is filed as cell-based. Particulars: AlphaLisa, read-out: pIC50, inhibition of IL-2 stimulated pSTAT5 (converted). As to the method: The potency of test compounds for inhibition of interleukin-2 (IL-2) stimulated STAT5 phosphorylation was measured in the Tall-1 human T cell line (DSMZ) using AlphaLisa. Because IL-2 signals through JAK1/3, this assay provides a measure of JAK1/3 cellular potency.
Phosphorylated STAT5 was measured via the AlphaLISA SureFire Ultra pSTAT5 (Tyr694/699) kit (PerkinElmer). Human T cells from the Tall-1 cell line were cultured in a 37° C., 5% CO2 humidified incubator in RPMI (Life Technologies) supplemented with 15% Heat Inactivated Fetal Bovine Serum (FBS, Life Technologies), 2 mM Glutamax (Life Technologies), 25 mM HEPES (Life Technologies) and 1× Pen/Strep (Life Technologies). Compounds were serially diluted in DMSO and dispensed acoustically to empty wells. […] Phosphorylated STAT5 was measured via the pSTAT5 AlphaLisa kit (PerkinElmer). […] Luminescence was measured with excitation at 689 nm and emission at 570 nm using an EnVision plate r reader (PerkinElmer) under green filtered <100 lux light.
To determine the inhibitory potency of test compounds in response to IL-2, the average emission intensity of beads bound to pSTAT5 was measured in a human T cell line. IC50 values were determined from analysis of the inhibition curves of signal intensity versus compound concentration. Data are expressed as pIC50 (negative decadic logarithm IC50) values (mean±standard deviation).
For orientation: Alpha assays give light when donor and acceptor beads are brought close together.

The target in another test is T1, AURKA (Homo sapiens, UniProt O14965).
T1 construct: made in house; host or cells: E. coli BL21-derived host (T7 phage) or HEK-293 cells
Briefly: Kinome screen, AURKA. Particulars: screened at 1 μM. It is filed as binding. As to the method:
(§1) Compounds 1 and C-1 were screened against other kinases to evaluate their selectivity profile.
(§2) Kinase-tagged T7 phage strains were grown in parallel in 24-well blocks in an E. coli host derived from the BL21 strain. E. coli were grown to log-phase and infected with T7 phage from a frozen stock (multiplicity of infection=0.4) and incubated with shaking at 32° C. until lysis (90-150 minutes). The lysates were centrifuged (6,000×g) and filtered (0.2 μm) to remove cell debris. The remaining kinases were produced in HEK-293 cells and subsequently tagged with DNA for qPCR detection.
(§3) Streptavidin-coated magnetic beads were treated with biotinylated small molecule ligands for 30 minutes at room temperature to generate affinity resins for kinase assays. The liganded beads were blocked with excess biotin and washed with blocking buffer (SeaBlock (Pierce), 1% BSA, 0.05% Tween 20, 1 mM DTT) to remove unbound ligand and to reduce non-specific phage binding. Binding reactions were assembled by combining kinases, liganded affinity beads, and test compounds in 1× binding buffer (20% SeaBlock, 0.17×PBS, 0.05% Tween 20, 6 mM DTT). Test compounds were prepared as 40× stocks in 100% DMSO and directly diluted into the assay. All reactions were performed in polypropylene 384-well plates in a final volume of 0.04 ml. […] The kinase concentration in the eluates was measured by qPCR. […]

For another test, the target named is T2, CSF1R (Homo sapiens, UniProt P07333).
T2 construct: made in house; host or cells: E. coli BL21-derived host (T7 phage) or HEK-293 cells
Briefly: Kinome screen, CSF1R. Conditions: screened at 1 μM. It is filed as binding. As to the method: as §1, §2, §3

The target in a further test is T3, GSK3B (Homo sapiens, UniProt P49841).
T3 construct: made in house; host or cells: E. coli BL21-derived host (T7 phage) or HEK-293 cells
Briefly: Kinome screen, GSK3B. Particulars: screened at 1 μM. It is filed as binding. As to the method:
as §1, §2, §3

Test [2] relates to IL-6 trans-signaling (IL6+sIL6Rα)-induced STAT3 phosphorylation in HRMECs. Briefly: Inhibition of IL-6 trans-signaling stimulated p-STAT3 in primary human retinal microvascular endothelial cells. The test is classed as cell-based. Particulars: HRMEC, 500 pM IL-6, 5 nM sIL6Rα, three independent experiments, read-out: pIC50, inhibition of IL-6 trans-signaling stimulated p-STAT3 (converted). As to the method: The cellular potency of the test compound toward inhibition of IL-6 trans-signaling (IL6+sIL6Rα)-induced STAT3 phosphorylation was measured in primary human retinal microvascular endothelial cells (HRMECs). IL-6 trans-signaling is mediated by IL-6 receptor beta (gp130), which is intracellularly coupled to JAK enzymes. Following gp130 engagement and dimerization, JAKs are activated and directly phosphorylate STAT3. Thus, this assay provides a measure of JAK cellular potency. HRMECs (Cell Systems, Kirkland Wash.) were plated in sterile, tissue culture treated, flat-bottom 96-well assay plates coated with Attachment Factor™ (Cell Systems, Kirkland Wash.) at a density of 1×10^4 cells per well. HRMEC cultures were grown for 3 days at 37° C., 95% humidity, 5% CO2 in culture media supplemented with 10% fetal bovine serum, Culture Boost™ growth factors, and BacOff® antibiotic (Cell Systems, Kirkland Wash.). […] To determine the inhibitory potency of the test compound, levels of p-STAT3 were measured using AlphaLISA® SureFire® Ultra™ p-STAT3 (Tyr705) assay kit (PerkinElmer) according to manufacturer's instructions. IC50 values were determined from inhibition curves of % p-STAT3 Alpha Signal vs test compound concentration (curve fitting conducted with GraphPad Prism 7.0). Data are expressed as pIC50 (negative log10(test compound concentration)).

SMILES strings stand for the structures.

T2 sequence (P07333 20-972): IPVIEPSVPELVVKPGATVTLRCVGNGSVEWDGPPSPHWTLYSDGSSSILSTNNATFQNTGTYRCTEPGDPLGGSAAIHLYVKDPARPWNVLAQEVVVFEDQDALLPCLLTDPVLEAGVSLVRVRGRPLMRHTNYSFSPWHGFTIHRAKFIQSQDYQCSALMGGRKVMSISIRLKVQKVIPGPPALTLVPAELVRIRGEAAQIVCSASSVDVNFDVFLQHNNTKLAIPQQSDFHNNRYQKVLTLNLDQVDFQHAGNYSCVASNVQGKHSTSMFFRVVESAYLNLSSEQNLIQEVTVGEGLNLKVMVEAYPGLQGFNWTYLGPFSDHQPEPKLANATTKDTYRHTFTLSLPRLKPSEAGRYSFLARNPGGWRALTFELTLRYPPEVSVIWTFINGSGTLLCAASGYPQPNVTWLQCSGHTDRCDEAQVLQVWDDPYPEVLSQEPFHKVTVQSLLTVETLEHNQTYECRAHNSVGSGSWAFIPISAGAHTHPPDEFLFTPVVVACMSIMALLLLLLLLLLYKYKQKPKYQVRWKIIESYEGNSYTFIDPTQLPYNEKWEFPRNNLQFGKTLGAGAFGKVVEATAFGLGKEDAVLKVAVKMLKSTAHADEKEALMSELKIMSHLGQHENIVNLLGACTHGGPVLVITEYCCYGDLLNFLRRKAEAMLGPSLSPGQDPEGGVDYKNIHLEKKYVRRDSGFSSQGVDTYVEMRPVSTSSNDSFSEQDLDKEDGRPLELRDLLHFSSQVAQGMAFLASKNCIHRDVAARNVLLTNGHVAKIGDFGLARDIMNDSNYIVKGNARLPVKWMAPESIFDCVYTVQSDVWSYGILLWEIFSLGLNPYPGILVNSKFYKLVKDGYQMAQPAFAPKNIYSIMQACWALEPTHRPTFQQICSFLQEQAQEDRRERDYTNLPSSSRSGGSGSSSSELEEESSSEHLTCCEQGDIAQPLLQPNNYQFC
T1 sequence (O14965 whole entry): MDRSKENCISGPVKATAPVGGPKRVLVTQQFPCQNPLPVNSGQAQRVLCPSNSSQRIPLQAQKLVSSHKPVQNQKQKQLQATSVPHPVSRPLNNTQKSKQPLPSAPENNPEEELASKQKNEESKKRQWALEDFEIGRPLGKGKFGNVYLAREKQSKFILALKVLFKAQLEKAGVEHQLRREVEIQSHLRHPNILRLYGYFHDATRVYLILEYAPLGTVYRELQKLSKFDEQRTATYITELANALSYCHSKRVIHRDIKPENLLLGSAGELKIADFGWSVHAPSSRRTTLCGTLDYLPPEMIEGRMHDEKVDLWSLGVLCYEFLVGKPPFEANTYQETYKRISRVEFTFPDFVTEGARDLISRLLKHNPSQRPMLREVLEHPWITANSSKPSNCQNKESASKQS
T3 sequence (P49841 whole entry): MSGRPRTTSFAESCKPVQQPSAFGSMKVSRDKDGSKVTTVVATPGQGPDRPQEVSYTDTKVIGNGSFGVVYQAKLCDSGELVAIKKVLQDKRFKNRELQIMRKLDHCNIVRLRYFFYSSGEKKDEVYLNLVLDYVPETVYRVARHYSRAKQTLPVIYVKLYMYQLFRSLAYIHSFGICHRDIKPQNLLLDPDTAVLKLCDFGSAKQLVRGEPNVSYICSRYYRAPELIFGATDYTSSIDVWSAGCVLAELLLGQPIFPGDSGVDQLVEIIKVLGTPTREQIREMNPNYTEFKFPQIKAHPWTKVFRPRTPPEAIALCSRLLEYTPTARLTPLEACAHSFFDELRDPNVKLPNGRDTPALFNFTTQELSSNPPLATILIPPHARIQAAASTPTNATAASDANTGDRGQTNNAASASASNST

For orientation: inhibition means the share of the control response that was lost under treatment. Low readings indicate little suppression, high ones strong suppression. `CCc1cc(O)c(F)cc1-c1cc(F)c2c(-c3nc4c([nH]3)CCN(C(=O)[C@]35C[C@H]3CCN5)C4)n[nH]c2c1` [Compound 1, (1S,5R)-2-azabicyclo[3.1.0]hexan-1-yl(2-(6-(2-ethyl-5-fluoro-4-hydroxyphenyl)-4-fluoro-1H-indazol-3-yl)-6,7-dihydro-3H-imidazo[4,5-c]pyridin-5(4H)-yl)methanone]: the IC50 in test [1] is 15.8 nM; in test [2] it was 501 nM. Further, the figures for the inhibition at 1 µM against AURKA, against CSF1R and against GSK3B were 26%, 98% and 32%, respectively.

The values are drawn from patent US10968222B2, “2-azabicyclo hexane JAK inhibitor compound” (THERAVANCE BIOPHARMA R&D IP, LLC, priority 2018, dated 2021).
